Measurements published in a melting point compilation (Tetko et al.; mined from patent text by program, amines drawn as free bases though some values may be those of a salt).

SMILES | melting point
CCn1c(N)c(C(=O)NC)c(=O)c2ccc(Cl)nc21 | 283 to 286 °C
O=C(O)CCCC(=O)N1C2CCC(C2)C1C(=O)O (stereo not drawn) | 155 to 159 °C
N#CC1(Nc2ccccc2)CCN([C@H]2CCc3ccccc32)CC1 | 157 to 160 °C
CNc1nnc(SCc2ccccn2)s1 | 73 to 75 °C
C#Cc1ccc2ncsc2c1 | 47.5 to 49 °C
COc1cc(C2CCOC2=O)c([N+](=O)[O-])cc1OC (stereo not drawn) | 144 to 147 °C
CC(=O)NC(C)c1ccc(CN2CCN(c3ncccn3)CC2)cc1 (stereo not drawn) | 124 to 126 °C
CC=CCn1c(Nc2cc(C)cc(C)c2)c(C(C)C)c(=O)[nH]c1=O | 186 to 187 °C
CCCCCCCCCCCCCCCCCCOC(=O)c1ccc(C)c(N)c1 | 79 °C
Cn1c(C#N)ccc1[N+](=O)[O-] | 86 to 87 °C
CN(C)Cc1ccc(CSCCNC(=C[N+](=O)[O-])NCc2ccc3c(c2)OCO3)o1 | 98 to 120 °C
O=S1(=O)N=C(OCc2snc(Cl)c2Cl)c2ccccc21 | 165 to 167 °C
O=c1cc(-c2ccc(Cl)cc2)sc(N2CCOCC2)c1 | 202 to 204 °C
COc1ccc2c(c1)CCN(Cc1cnc(C)nc1N)C2 | 142 to 143 °C
CC(O)c1cc(N)ccc1N (stereo not drawn) | 124 °C
CN1CCc2sc(C=C3C(=O)N4C(C(=O)O)=CSC34)cc2C1 (stereo not drawn) | > 25 °C
NC(=O)c1ncn2c1CN=C(c1ccccc1F)c1cc(Cl)ccc1-2 | 292 to 294 °C
Cc1cc(C)c(C(=O)P(=O)(C(=O)c2c(C)cc(C)cc2C)c2ccccc2)c(C)c1 | 130 to 131 °C
COc1cc(Nc2nccc(-c3cncs3)n2)cc(OC)c1OC | 171 °C
CCC(C)(C)Nc1c(NCc2ccc(F)cc2Cl)c(=O)c1=O | 201 to 203 °C
CC(C)(C)OC(=O)N1CCC(C2=C(C#N)C(c3cccc(C#N)c3Br)c3c[nH]nc3N2)CC1 (stereo not drawn) | > 270 °C
CCSc1cc(C)nc(SCC)c1NC(=O)CCCCCCCSc1nc2ccccc2[nH]1 | 166 to 168 °C

SMILES | melting point
O=C1Nc2ccc(Cl)cc2C1CC1CCCCC1 (stereo not drawn) | 152 to 153 °C
Fc1cc(F)c2c(c1)CC(n1cc[nH]c1=S)CC2 (stereo not drawn) | 250 to 251 °C
O=C1CCCC12CCOc1ccc(F)cc12 (stereo not drawn) | 49 to 51 °C
Cc1cc(I)ccc1NC(=S)N(C)N | 160 to 161 °C
CC(C)(C)c1ccc(N)cn1 | 61.5 to 62.7 °C
CCNC(Cc1ccc(O)cc1)C(=O)OCC (stereo not drawn) | 87 to 89 °C
CC1C=C2CCCCCCCCCC=C2C1 (stereo not drawn) | 98 to 103 °C
CCOC(=O)c1ncn2c1CN=C(c1ccccc1Cl)c1cc(Cl)ccc1-2 | 215 to 220 °C
CC(=O)OC1CC2(C)C(=O)CCC2C2C(CCCCCCCCCCl)CC3=CC(=O)CCC3C12 (stereo not drawn) | 113 to 115 °C
Cc1cc(-c2coc3ccc(-c4nnc(C)o4)cc23)ccn1 | 151 to 152 °C
Cc1ncc(CC(=O)O)s1 | 144 °C
COc1ccc2c(c1)COCc1cc(OC)c(OC)c(OC)c1-2 | 151 to 153 °C
CCOC(=O)C1CC(=O)c2cc(C(C)(C)C)cc(C(C)(C)C)c2O1 (stereo not drawn) | 61 to 63 °C
CCOC(=O)c1cc(C#N)ccn1 | 170 to 172 °C
COc1ccc(COCc2nc(C(C)C)c(Sc3cc(Cl)cc(Cl)c3)[nH]2)cc1 | 96 to 97 °C
CC(C)c1ccc2ncn(/C=C/C(=O)O)c(=O)c2c1 | 242 to 243 °C
C=C(Cl)C[C@@H](CC(=O)N(CC(=O)N(C)CCc1ccccn1)CC1CCCCC1)C(=O)N[C@@H](CC1CCCCC1)[C@@H](O)[C@@H](O)CC(C)C | 140 °C
Cc1cc(-c2cc(Cl)ccc2Cl)n2ncc(C#N)c2n1 | 229 to 230 °C
CC(C)(C)C(=O)Nc1ccc2oc3c(c2c1)CCCCC3 | 208 to 209 °C
CC(=O)OCCOc1cnc(-c2ncc([N+](=O)[O-])n2C)nc1 | 148 to 150 °C
COc1cc2ncnc(N3CCC(C(C)CN4CCCS4(=O)=O)C(O)C3)c2cc1OC (stereo not drawn) | 173 to 174 °C
CC(=O)c1ccc2cc(N3CCNCC3)ccc2c1 | 170 to 172 °C

Now from value to molecule:

melting point | SMILES
121 °C | O=S(=O)(c1ccc(Cl)cc1)N1CCCC1c1ccc(F)c(F)c1 (racemic)
190 °C | NS(=O)(=O)c1ccc(-n2nc(C(F)(F)F)cc2-c2ccc(-c3ccco3)cc2)c(Cl)c1
174 to 176 °C | O=C(O)C1=Cc2cc(Cl)c(OCC(F)(F)F)cc2OC1C(F)(F)F (stereo not drawn)
183 to 185 °C | CC(C)N(CCCCS(=O)(=O)CC(=O)O)c1cnc(-c2ccccc2)c(-c2ccccc2)n1
99 to 100 °C | CCCSC1NC(c2ccc(Cl)cc2)=NN(CC(F)(F)F)C1=O (stereo not drawn)
160 °C | N#CCOc1ccc(-c2ccc(=O)n(Cc3ccc(Cl)cc3F)c2)cc1
142 to 143 °C | c1ccc(COc2cccc(Nc3nnc(Cc4ccncc4)c4ccccc34)c2)cc1
173 °C | CC(C)n1c(=O)n(C(=O)NCC2CCN(CC3(C(=O)O)CCC3)CC2)c2ccccc21
93 to 94 °C | CCOC(=O)C(Cc1c(Br)c(OC)c(OC)c(OC)c1OC)(C(=O)OCC)c1ccc(OCc2ccccc2)cc1
236 to 238 °C | CN(C)CCNc1ccc(NCCN(C)C)c2c1C(=O)c1c(O)ccc(O)c1C2=O
142 to 143 °C | COCOc1c(C)cc(-c2ccc(C(=O)NCCOc3ccc(CC(Oc4ccccc4)C(=O)O)cc3)cc2)cc1C (stereo not drawn)
81 to 83 °C | Cc1c(OCc2ccccc2)c(=O)ccn1CCC(=O)O
117 to 120 °C | CC(=O)NCC1CC(c2ccc(C3=CCN(C(=O)OC(C)(C)C)CC3)cc2)=NO1 (stereo not drawn)
202 to 204 °C | O=C(Nc1ccc(C(=O)N2CCCc3ccccc32)cc1)c1ccccc1
215 to 217 °C | CC(C)n1nc(-c2c(OCC(=O)O)nc(N)nc2-c2ccccc2)ccc1=O
198 to 200 °C | Cc1nc(Nc2ccc(F)cc2)nc(N2CCc3ccccc3C2CO)c1C (stereo not drawn)
190 to 200 °C | CC(=O)N(C)c1c(N(C)C)cc(CC(C#N)=CNc2ccccc2)cc1N(C)C
225 to 226 °C | Cc1cc(-c2ccc3c(=O)c(C(=O)O)cn(C4CC4)c3c2C)cnc1CO
170 to 173 °C | Cc1noc2cc3c(cc12)C1(CO3)C(=O)N(Cc2cnccn2)c2ccccc21 (stereo not drawn)
121 to 125 °C | CCOC(=O)C1=C(C)NC(c2ncc[nH]2)=NC1c1ccccc1Cl (stereo not drawn)
132 to 133 °C | N=C(Nc1ccc(Cl)cc1)Nc1ncc(Cl)cc1OCc1c(F)cccc1Cl
134 to 135 °C | COc1ccc(NC(=O)Cc2ccc(Cl)cc2)c(OC)c1
179 to 180 °C | CCCCCNC(=O)c1cn2nc(N3CCN(C(=O)c4ccccc4C(F)(F)F)CC3)ccc2n1
180 °C | CC(C)COc1ccccc1-c1ccc(C(N)=O)c(=O)[nH]1
44 to 46 °C | O=C(NCCc1c[nH]c2ccccc12)Oc1ccccc1
77 °C | c1ccc(-c2cnc3ccccc3n2)cc1
190 °C | CCCOc1ccc(S(=O)(=O)N2CC[C@@H](N(C)C)C2)cc1-c1nc2cc3ncn(Cc4ccccc4)c3cc2c(=O)[nH]1

melting point | SMILES
185 to 187 °C | COc1cc(OC)c(-c2cc3ccccc3[nH]2)cc1C=CC(=O)c1ccc(S(N)(=O)=O)cc1
220 to 222 °C | CC(C)[C@H](NC(=O)OCc1ccccn1)C(=O)N[C@@H](Cc1ccccc1)C[C@H](O)[C@H](Cc1ccccc1)NC(=O)[C@@H](NC(=O)OCc1ccccn1)C(C)C
80 to 83 °C | Nc1ccc(Cc2ccccc2)cc1[N+](=O)[O-]
211 to 212 °C | CCCn1nc2c(N)nc3ccccc3c2c1CCNC(=O)Nc1ccc(F)c(F)c1
131 °C | CC(C)(C)OC(=O)Nc1ccc(C#Cc2nccs2)cc1NC(=O)CC(=O)c1cccc(C#N)c1
157 to 158 °C | CCOC(=O)C(CC(=O)c1ccccc1Cl)(NC(C)=O)C(=O)OCC
87.5 to 88.5 °C | CS(=O)(=O)c1ccc(C2=C(c3ccc(F)c(Cl)c3)CCC2)cc1
84 to 85 °C | COc1cc(C(C)=O)ccc1-c1ccccc1F
136 to 140 °C | Clc1cccc(-c2nc(-c3ccccn3)no2)c1
79 to 83 °C | Cc1ccc(N2CCCN(c3ccnc4sc(C(N)=O)c(N)c34)CC2)cc1F
171 to 173 °C | Nc1ncc(-c2cccc3ccccc23)c(N)n1
196 to 197 °C | CC1(C)OC(=O)C(Oc2ccc(Cl)nc2)=C1c1ccc(S(C)(=O)=O)cc1
151 °C | CCOc1ccc2c(c1)n(C1CCCC1)c(=O)n2S(=O)(=O)c1ccc(C(=O)OC)cc1OC
171 to 172 °C | CC(C)(C)c1cc(CCc2ccccc2NC(=O)N2CCN(C(=O)c3cccnc3)CC2)cc(C(C)(C)C)c1O
325 °C | Cc1ccc(C2CN(c3cc4c(cc3F)ncc3c4c(=O)c(C(=O)O)cn3C)CCN2)cc1C (stereo not drawn)
68 to 73 °C | CN(C)c1ccc(NC(=O)N(Cc2ccco2)C[C@@H]2CCC[C@H](CN(Cc3ccco3)C(=O)Nc3ccc(N(C)C)cc3)C2)cc1
106 to 108 °C | NCCc1cn(S(=O)(=O)c2ccccc2Cl)c2cccnc12
161 to 162 °C | COC(=O)C(=O)c1c(OC)cc(OCCOc2ccc3ccccc3c2)cc1OC
103 °C | CCN(CC)C(=O)CCc1nc(-c2ccccc2)nc2ccccc12
280 °C | COc1cc(C2CN(c3cc4c(cc3F)ncc3c4c(=O)c(C(=O)O)cn3C)CCN2)ccc1OCc1ccccc1 (stereo not drawn)
139 to 142 °C | O=C(O)c1ccc(OCCNC(=O)C2Cc3ccccc3N2S(=O)(=O)c2ccc(-c3ccc(F)cc3)cc2)c(C(F)(F)F)c1 (stereo not drawn)
256 °C | COc1ccc2nc(C(F)(F)F)c(C(=O)O)c(O)c2c1
216 to 218 °C | Oc1ccc2c(c1)COc1c-2cc2ccc(O)cc2c1-c1ccoc1
224 to 226 °C | CC1(C)OC(=S)Nc2ccc(-c3cccc([N+](=O)[O-])c3)cc21
75 to 80 °C | CCCNC(=O)c1ccc2c(c1)N(C(C)CN1CCCC1)c1ccccc1S2 (racemic)
197 to 202 °C | CCCCCC(C)N(Cc1ccnc2ccccc12)C(Nc1ccc(OC)cc1OC)=C1C(=O)OC(C)(C)OC1=O (stereo not drawn)
176 to 178 °C | Cc1ccc2cccc(OCc3cc(N)ccc3Cl)c2n1
